Experimental data from EP4480471A1, “SPECIFIC COMPOUNDS FOR TREATING SIGNS OF SKIN AGING AND/OR HAIR AGING” (DSM IP Assets B.V., priority 2023, dated 2024).

Test system: human dermal fibroblasts
Assay: Senolytic activity study: SA-beta-galactosidase flow cytometry on a mixed 70% normal / 30% senescent cell population
Format: cell-based
Conditions: 72 hours; for Senescent cells left from 30%: normalized to untreated control, n = 4
Method: Normal and senescent cell populations were obtained from normal human dermal fibroblasts. For the normal cell population, the cells were seeded in cell culture medium (Dulbecco's Modified Eagle Medium supplemented with 10% serum and 1% antibiotics) and allowed to adhere and proliferate in a humidified cell incubator maintaining 37°C and 5% CO2. These were then passaged or collected when 90% confluent. For the senescent cell population, the normal fibroblast cells were at this stage shortly exposed to 200 µM H2O2 followed by normal cell culture medium. Several days later, the cells were treated again with H2O2 to obtain a fully senescent population.
Both normal and senescent populations were mixed into a 70% normal and 30% senescent cell population and represented the treatment population. Afterward, the 70% normal and 30% senescent cell population were seeded in cell culture medium and allowed to adhere in the cell incubator. After adherence, the medium was aspirated, and the treatment medium (Dulbecco's Modified Eagle Medium supplemented with 1% serum) containing the respective compounds at various concentrations (see Table 1) was added to the cells. For assay validation purposes, one condition with treatment medium only (without compound as negative control) and one condition with navitoclax (a known senolytic as positive control); both not included in the presented data. The cells were incubated in the cell incubator for at least 72 hours. Afterward, senescence-associated beta-galactosidase was visualized - a well-known senescence marker- in the cells to quantify the senescence levels using flow cytometry.
Data are normalized to the untreated control (30% senescent cells and 70% normal cells) (n = 4).

[1] = 25 µM, 70% normal and 30% senescent human dermal fibroblasts
[2] = 1 µM, 70% normal and 30% senescent human dermal fibroblasts
[3] = 5 µM, 70% normal and 30% senescent human dermal fibroblasts
[4] = concentration not given, human dermal fibroblasts

Compound | Senolytic effect [1] | Senescent cells left from 30% [1] | Senolytic effect [2] | Senolytic effect [3] | Senescent cells left from 30% [2] | Senescent cells left from 30% [3] | Senolytic effect [4]
COc1cc([C@@H]2CC(=O)c3c(O)cc(O)cc3O2)ccc1O [(I"1)] | yes | 23% | – | – | – | – | –
O=C1c2c(O)cc(O)cc2O[C@H](c2cc(O)c(O)c(O)c2)[C@H]1O [(I"2)] | yes | – | yes | yes | – | – | –
O=C1c2c(O)cc(O)cc2OC(c2cc(O)c(O)c(O)c2)C1O (centres unmarked) [(I"3)] | yes | – | yes | yes | – | – | –
COc1ccc(C2CC(=O)c3c(O)cc(O)cc3O2)cc1O (centres unmarked) [(I"4)] | yes | – | yes | yes | – | – | –
O=C1CC(c2ccccc2)Oc2ccc(O)cc21 (centres unmarked) [(I"5)] | yes | – | yes | yes | – | – | –
COc1cc(O)c2c(c1)OC(c1ccccc1)CC2=O (centres unmarked) [(I"6)] | yes | – | yes | yes | – | – | –
COc1cc(O)c2c(c1)OC(c1ccc(O)cc1)CC2=O (centres unmarked) [(I"7)] | yes | – | yes | yes | – | – | –
O=C1CC(c2ccccc2)Oc2cc(O)ccc21 (centres unmarked) [(I"8)] | – | – | yes | yes | 24% | 24% | yes
COc1cc(C2CC(=O)c3c(O)cc(O)cc3O2)ccc1O (centres unmarked) [(I"10)] | yes | 22% | – | – | – | – | yes
O=C1CC(c2ccc(O)c(O)c2)Oc2cc(O)cc(O)c21 (centres unmarked) [(I"11)] | – | – | yes | yes | – | – | yes
O=c1cc(-c2ccc(O)c(O)c2)oc2c(O)c(O)ccc12 [(I'1)] | yes | – | yes | yes | – | – | –
O=c1c(-c2ccc(O)c(O)c2)coc2cc(O)ccc12 [(I'2)] | yes | – | yes | yes | – | – | –
COc1cc(-c2oc3cc(O)ccc3c(=O)c2O)cc(OC)c1OC [(I'3)] | yes | – | yes | yes | – | – | –
COc1cc(C)c2c(=O)c(-c3ccccc3)coc2c1 [(I'4)] | yes | – | yes | yes | – | – | –
COc1ccc(-c2cc(=O)c3c(OC)cc(OC)cc3o2)cc1 [(I'5)] | yes | – | yes | yes | – | – | –
COc1cc2oc(-c3ccccc3)cc(=O)c2c(O)c1O [(I'6)] | yes | – | yes | yes | – | – | –
COc1ccc(-c2coc3cc(O)cc(O)c3c2=O)cc1 [(I'7)] | yes | – | yes | yes | – | – | –
COc1cc(-c2cc(=O)c3c(O)cc(O)cc3o2)ccc1O [(I'8)] | yes | – | yes | yes | – | – | –
O=c1cc(-c2ccc(O)cc2)oc2c(-c3c(O)cc(O)c4c(=O)cc(-c5ccc(O)cc5)oc34)c(O)cc(O)c12 [(I'9)] | yes | – | yes | yes | – | – | –
O=c1c(O)c(-c2ccc(O)cc2)oc2c(O)c(O)cc(O)c12 [(I'10)] | yes | – | – | yes | – | – | –

Compound | Senolytic effect [1] | Senescent cells left from 30% [1] | Senolytic effect [2] | Senolytic effect [3] | Senescent cells left from 30% [2] | Senescent cells left from 30% [3] | Senolytic effect [4]
COc1ccc(-c2cc(=O)c3c(O)cc(O[C@@H]4O[C@H](CO)[C@@H](O)[C@H](O)[C@H]4O)cc3o2)cc1O [(I'11)] | yes | – | – | yes | – | – | –
CC1OC(Oc2c(-c3cc(O)c(O)c(O)c3)oc3cc(O)cc(O)c3c2=O)C(O)C(O)C1O (centres unmarked) [(I'14)] | yes | – | yes | yes | – | – | –
COc1c(O[C@@H]2O[C@H](CO)[C@@H](O)[C@H](O)[C@H]2O)cc2oc(-c3ccc(O)c(O)c3)c(O)c(=O)c2c1O [(I'15)] | yes | – | yes | yes | – | – | –
CC(C)Oc1ccc2c(=O)c(-c3ccccc3)coc2c1 [(I'16)] | yes | – | yes | yes | – | – | –
O=c1c(O)c(-c2ccc(O)cc2)oc2cc(O)cc(O)c12 [(I'17)] | yes | – | yes | yes | – | – | –
COc1c(O)cc2oc(-c3ccc(O)c(O)c3)cc(=O)c2c1O [(I'18)] | yes | – | yes | yes | – | – | –
COc1cc(O)c2c(=O)c(O)c(-c3ccc(O)c(OC)c3)oc2c1 [(I'19)] | yes | – | yes | yes | – | – | –
COc1cc(O)c2c(=O)c(O)c(-c3ccc(O)c(O)c3)oc2c1 [(I'20)] | yes | – | yes | yes | – | – | –
O=c1c(O)c(-c2cc(O)c(O)c(O)c2)oc2cc(O)ccc12 [(I'21)] | yes | – | yes | yes | – | – | –
O=c1cc(-c2cc(O)c(O)c(O)c2)oc2cc(O)cc(O)c12 [(I'22)] | yes | – | yes | yes | – | – | –
COc1c(-c2ccccc2)oc2ccccc2c1=O [(I'23)] | yes | 21% | – | – | – | – | yes
COc1cc2oc(-c3ccccc3)cc(=O)c2c(OC)c1OC [(I'24)] | yes | – | – | yes | – | – | yes
O=c1c(O)c(-c2ccccc2O)oc2cc(O)cc(O)c12 [(I'25)] | yes | – | yes | yes | – | – | –
O=c1c(-c2ccc(O)cc2)coc2cc(O[C@@H]3O[C@H](CO)[C@@H](O)[C@H](O)[C@H]3O)ccc12 [(I'26)] | – | – | yes | – | 25% | – | yes
COc1ccc(-c2cc(=O)c3c(O)cc(O)cc3o2)cc1O [(I'27)] | yes | – | yes | yes | – | – | –
COc1cc2c(=O)c(-c3ccc(O)cc3)coc2cc1O [(I'28)] | yes | 23% | – | – | – | – | yes
COc1cc(-c2cc(=O)c3c(O)c(OC)c(OC)c(OC)c3o2)cc(OC)c1OC [(I'29)] | yes | – | yes | yes | – | – | –
COc1cc(-c2coc3cc4c(c(OC)c3c2=O)OCO4)cc(OC)c1OC [(I'30)] | yes | 26% | – | – | – | – | yes
COc1ccc(-c2cc(=O)c3ccc(O)cc3o2)cc1 [(I'32)] | yes | – | yes | yes | – | – | –
COc1ccc(-c2cc(=O)c3c(OC)c(OC)c(OC)cc3o2)cc1 [(I'33)] | yes | – | yes | yes | – | – | –
